The source of these data is the RepoRT retention time repository (doi:10.1016/j.chroma.2019.01.023).

Holding throughout (conditions): stereoisomer not certain
Data set [1] can be described thus: HILIC, Waters ACQUITY UPLC BEH Amide, 150 × 2.1 mm, 1.7 µm, 40 °C, 0.5 mL/min, estimated dead time 0.66 min; A: 5% water + 95% acetonitrile; B: 70% water + 30% acetonitrile + 10 mM ammonium formate, pH 6.5; gradient (min/%B) 0/0 2/0 20/70 23/70 24/0 31/0.
Data set [2] in a line: RP, Phenomenex Kinetex C18, 150 × 2.1 mm, 1.7 µm, 30 °C, 0.3 mL/min, estimated dead time 1.1 min; A: water + 0.1% formic acid, pH 3; B: acetonitrile + 0.1% formic acid, pH 3; gradient (min/%B) 0/2 14/100 17/100 17.1/2 25/2.
Data set [3] is described as follows: HILIC, Merck SeQuant ZIC-pHILIC, 150 × 2.1 mm, 5 µm, 40 °C, 0.3 mL/min, estimated dead time 1.1 min; A: acetonitrile; B: water + 2.8 mM ammonium formate, pH 9; gradient (min/%B) 0/5 1/5 10/51 13/51 13.1/5 20/5.
A short description of data set [4]: RP, Phenomenex Kinetex C18, 150 × 2.1 mm, 1.7 µm, 30 °C, 0.3 mL/min, estimated dead time 1.1 min; A: water + 0.1% formic acid, pH 3; B: acetonitrile + 0.1% formic acid, pH 3; gradient (min/%B) 0/2 14/100 17/100 17.1/2 25/2. This is another data set of the same source.

With `CC(C)=CCNc1ncnc2nc[nH]c12` [N6-(DELTA2-ISOPENTENYL)-ADENINE], the LC retention time in data set [1] was 1.15 min; in data set [2], 4.91 min; in data set [3], 2.04 min; in data set [4], 5.14 min.

For the compound `Nc1nc2nc[nH]c2c(=O)[nH]1` [GUANINE], the LC retention time in data set [1] was 6.4 min; in data set [2] it was 1.64 min; in data set [3] it was 7.4 min; in data set [4] it was 1.44 min.

On to `O=C(O)CCCCCCCCC(=O)O` [SEBACATE], for which the LC retention time is 1.12 min in data set [1], 6.91 min in data set [2], 2.41 min in data set [3] and 7 min in data set [4].

Turning to `Cc1cc2nc3[nH]c(=O)[nH]c(=O)c3nc2cc1C` [LUMICHROME], the LC retention time in data set [1] is 1.32 min; in data set [2], 6.13 min; in data set [3], 2.06 min; in data set [4], 6.2 min.

Take `COc1cc(C=CC(=O)O)ccc1O` [FERULATE]: the LC retention time in data set [1] is 1.24 min; in data set [2], 5.76 min; in data set [3] it was 3.78 min; in data set [4], 5.87 min.

With `O=C(O)CCCCC1SCC2NC(=O)NC21` (centres undefined) [BIOTIN], the LC retention time in data set [1] is 5.11 min; in data set [2], 4.77 min; in data set [3], 5.57 min; in data set [4], 4.98 min.

As to `CC1NC(=O)NC1CCCCCC(=O)O` (centres undefined) [DETHIOBIOTIN], the LC retention time in data set [1] was 2.6 min; in data set [2], 5.18 min; in data set [3] it was 3.18 min; in data set [4], 5.37 min.

On to `Nc1ccn(C2CC(O)C(CO)O2)c(=O)n1` (centres undefined) [DEOXYCYTIDINE], for which the LC retention time in data set [1] was 5.71 min; in data set [2], 1.43 min; in data set [3], 6.63 min; in data set [4], 1.54 min.

`O=c1[nH]c(=O)c2nccnc2[nH]1` [2,4-DIHYDROXYPTERIDINE]: the LC retention time in data set [1] is 1.79 min; in data set [2], 2.24 min; in data set [3] it was 4.42 min; in data set [4] it was 2.49 min.

Take `CC(CCC(=O)O)C1CCC2C3C(O)CC4CC(O)CCC4(C)C3CC(O)C12C` (centres undefined) [CHOLATE]: the LC retention time is 2.62 min in data set [1], 9.02 min in data set [2], 2.33 min in data set [3] and 9.11 min in data set [4].

As for `O=c1ccn(C2CC(O)C(CO)O2)c(=O)[nH]1` (centres undefined) [DEOXYURIDINE], the LC retention time is 2.37 min in data set [1], 2.39 min in data set [2], 4.73 min in data set [3] and 2.63 min in data set [4].

For the compound `CSCCC(NC(C)=O)C(=O)O` (centres undefined) [N-ACETYLMETHIONINE], the LC retention time in data set [1] is 3.31 min; in data set [2] it was 4.1 min; in data set [3], 4.9 min; in data set [4], 4.22 min.

As for `NC(=O)[C@@H](N)Cc1c[nH]c2ccccc12` [L-TRYPTOPHANAMIDE], the LC retention time is 5.86 min in data set [1], 3.7 min in data set [2], 7.51 min in data set [3] and 3.82 min in data set [4].

Turning to `Nc1cc([O-])cc(C(=O)O)c1` [3-AMINO-5-HYDROXYBENZOATE], the LC retention time in data set [1] is 2.31 min; in data set [2], 1.62 min; in data set [3] it was 8.3 min; in data set [4], 1.75 min.

On to `O=C(O)c1ccc(=O)[nH]c1` [6-HYDROXYNICOTINATE], for which the LC retention time in data set [1] was 5.68 min; in data set [2], 2.61 min; in data set [3], 7.69 min; in data set [4] it was 2.76 min.

For the compound `Nc1ncnc2c1ncn2C1CC(O)C(CO)O1` (centres undefined) [DEOXYADENOSINE], the LC retention time in data set [1] is 2.91 min; in data set [2], 2.54 min; in data set [3] it was 5.19 min; in data set [4] it was 2.8 min.
